Values quoted from earlier work as cited in US20110218104A1, “Biodiesel Solvents in Pesticide Compositions” (AUBURN UNIVERSITY, priority 2010, published 2011).

Details: Merck Index, 1989

## NC(N)=O [urea]
  solubility in glycerin: considerable solubility
